Where only a bound is given, the exact number is not on record here.

The target of the assay is T1, CYP11A1 (Homo sapiens, UniProt P05108).
T1 construct: human H295R adrenocortical carcinoma cell line was used as source of enzyme; endogenous in cells; host or cells: H295R human adrenocortical carcinoma cells
T1 sequence (P05108 40-521): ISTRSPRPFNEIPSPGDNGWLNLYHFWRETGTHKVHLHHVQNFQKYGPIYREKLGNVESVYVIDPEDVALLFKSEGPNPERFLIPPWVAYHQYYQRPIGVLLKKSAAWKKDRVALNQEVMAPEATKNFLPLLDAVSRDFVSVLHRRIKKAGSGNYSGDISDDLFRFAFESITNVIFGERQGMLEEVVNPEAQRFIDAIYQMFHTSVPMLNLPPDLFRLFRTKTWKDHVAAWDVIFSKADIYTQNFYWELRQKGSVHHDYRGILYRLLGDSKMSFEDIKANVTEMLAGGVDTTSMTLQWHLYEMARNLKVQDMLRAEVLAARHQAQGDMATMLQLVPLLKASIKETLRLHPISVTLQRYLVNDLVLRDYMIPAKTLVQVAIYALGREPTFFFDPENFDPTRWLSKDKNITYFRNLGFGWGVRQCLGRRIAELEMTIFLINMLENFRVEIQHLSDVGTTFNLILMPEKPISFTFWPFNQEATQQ
In words: CYP11A1 inhibition: modified isocaproic acid release assay (IARA) in H295R cells. It counts as cell-based. Particulars: human H295R adrenocortical carcinoma cells treated three days, 3 nM [24,25-3H]-labelled cholesterol, 1% DMSO, 10 concentrations in duplicates; read-out: IC50 of the test compounds on CYP11A1 inhibition. The protocol:
The ability of the test compounds to inhibit conversion of cholesterole to pregnenolone and isocaproic acid was measured by modification of isocaproic acid release assay (IARA) described by Ruangwises et. al. (Biology of Reproduction 1991; 45(1):143-50) except that human H295R adrenocortical carcinoma cell line was used as source of enzyme and extraction was done with dextran-coated charcoal suspension (Isomaa, V. et al., Endocrinology 1982; 111(3):833-843). […] To determine the half maximal inhibitory concentration (IC50) of the test compounds on CYP11A1 inhibition, the cells were treated for three days with increasing concentrations of the test compounds in the presence of 3 nM [24,25-3H]-labelled cholesterol (American Radiolabelled Chemicals). The final DMSO concentration was 1%. Cell culture medium was extracted with dextran-coated charcoal suspension and the radiolabelled isocaproic acid was determined by mixing 100 μl of supernatant fraction in 200 μl of scintillation fluid (OptiPhase SuperMix, Perkin Elmer). Radioactivity was measured using a Microbeta scintillation counter (1450 MicroBeta Trilux, Wallac). All the test compounds were studied at 10 concentrations in duplicates.
As a reminder, the IC50 is the concentration at which inhibition is half-maximal. In the case of `O=c1cc(CN2Cc3ccccc3C2)occ1OCc1ccc(S(=O)(=O)C(F)F)cc1` [Compound 22, 5-((4-((Difluoromethyl)sulfonyl)benzyl)oxy)-2-(isoindolin-2-ylmethyl)-4H-pyran-4-one], the IC50 is less than 150 nM.

Consider `CC(C)(C)OC(=O)N1CCC(COc2coc(CN3Cc4ccccc4C3)cc2=O)C1` (stereo not shown) [Compound 182, tert-Butyl 3-(((6-(isoindolin-2-ylmethyl)-4-oxo-4H-pyran-3-yl)oxy)methyl)-pyrrolidine-1-carboxylate], for which the IC50 is 301 to 2000 nM.

On to `O=C(N1CCCC1)N1CCC(COc2coc(CN3Cc4ccccc4C3)cc2=O)CC1` [Compound 215, 2-(Isoindolin-2-ylmethyl)-5-((1-(pyrrolidine-1-carbonyl)piperidin-4-yl)methoxy)-4H-pyran-4-one], for which the IC50 is less than 150 nM.

As to `O=C(NC1CCSC1=O)c1ccc(COc2coc(CN3Cc4ccccc4C3)cc2=O)cc1` (stereo not shown) [Compound 96, 4-(((6-(Isoindolin-2-ylmethyl)-4-oxo-4H-pyran-3-yl)oxy)methyl)-N-(2-oxotetra-hydrothiophen-3-yl)benzamide], the IC50 is 301 to 2000 nM.

Consider `CC(C)(C)OC(=O)N1CCC(CCOc2coc(CN3Cc4ccccc4C3)cc2=O)CC1` [Compound 197, tert-Butyl 4-(2-((6-(isoindolin-2-ylmethyl)-4-oxo-4H-pyran-3-yl)oxy)ethyl)-piperidine-1-carboxylate], for which the IC50 was in the range of 301 to 2000 nM.

Turning to `O=c1cc(CN2Cc3ccc(C(F)(F)F)cc3C2)occ1OCC1CCN(S(=O)(=O)C2COC2)CC1` [Compound 69a, 5-((1-(Oxetan-3-ylsulfonyl)piperidin-4-yl)methoxy)-2-((5-(trifluoromethyl)-isoindolin-2-yl)methyl)-4H-pyran-4-one], the half-maximal inhibitory concentration (IC50) was less than 150 nM.

Consider `CS(=O)(=O)N1CCC(COc2coc(CN3Cc4ccc(C(F)(F)F)cc4C3)cc2=O)CC1` [Compound 184, 5-((1-(Methylsulfonyl)piperidin-4-yl)methoxy)-2-((5-(trifluoromethyl)isoindolin-2-yl)methyl)-4H-pyran-4-one], for which the IC50 is less than 150 nM.

With `CS(C)(=O)=NC(=O)c1ccc(COc2coc(CN3Cc4ccccc4C3)cc2=O)cc1` [Compound 83, 4-({[6-(1,3-Dihydro-2H-isoindol-2-ylmethyl)-4-oxo-4H-pyran-3-yl]oxy}methyl)-N-[dimethyl(oxido)-λ^6-sulfanylidene]benzamide], the IC50 is less than 150 nM.

As to `CS(=O)(=O)c1ccc(COc2coc(CN3Cc4ccc([N+](=O)[O-])cc4C3)cc2=O)cc1` [Compound 68, 5-((4-(Methylsulfonyl)benzyl)oxy)-2-((5-nitroisoindolin-2-yl)methyl)-4H-pyran-4-one], the IC50 was in the range of 150 to 300 nM.

With `C[C@H]1c2ccccc2CN1Cc1cc(=O)c(OCc2ccc(C(=O)N(C)C)cc2)co1` [Compound 132, (S)—N,N-Dimethyl-4-(((6-((1-methylisoindolin-2-yl)methyl)-4-oxo-4H-pyran-3-yl)oxy)methyl)benzamide], the IC50 lay in the range of 301 to 2000 nM.

Consider `CC(=O)N1CCC(COc2coc(CN3Cc4ccccc4C3)cc2=O)CC1` [Compound 252, 5-((1-Acetylpiperidin-4-yl)methoxy)-2-(isoindolin-2-ylmethyl)-4H-pyran-4-one], for which the concentration for half-maximal inhibition (IC50) fell in the range of 150 to 300 nM.

As for `CS(=O)(=O)N1CCC(COc2coc(CN3Cc4ccccc4C3)cc2=O)=C(F)C1` [Compound 104, 5-((5-Fluoro-1-(methylsulfonyl)-1,2,3,6-tetrahydropyridin-4-yl)methoxy)-2-(isoindolin-2-ylmethyl)-4H-pyran-4-one], the IC50 was less than 150 nM.

Consider `CSc1ccc(COc2coc(CN3Cc4ccccc4C3)cc2=O)cc1` [Compound 82, 2-(Isoindolin-2-ylmethyl)-5-((4-(methylthio)benzyl)oxy)-4H-pyran-4-one], for which the IC50 fell in the range of 150 to 300 nM.

Regarding `CN(C)S(=O)(=O)c1ccc(COc2coc(CN3Cc4ccccc4C3)cc2=O)cc1` [Compound 10, 4-(((6-(Isoindolin-2-ylmethyl)-4-oxo-4H-pyran-3-yl)oxy)methyl)-N,N-di-methylbenzenesulfonamide], the IC50 is less than 150 nM.

Turning to `O=C(c1ccc(COc2coc(CN3Cc4ccccc4C3)cc2=O)cc1)N1CCCC1` [Compound 122, 2-(Isoindolin-2-ylmethyl)-5-((4-(pyrrolidine-1-carbonyl)benzyl)oxy)-4H-pyran-4-one], the IC50 is less than 150 nM.

Turning to `CNC(=O)N1CCC(COc2coc(CN3Cc4ccccc4C3)cc2=O)CC1` [Compound 228, 4-(((6-(Isoindolin-2-ylmethyl)-4-oxo-4H-pyran-3-yl)oxy)methyl)-N-methyl-piperidine-1-carboxamide], the IC50 was in the range of 150 to 300 nM.

For `O=c1cc(CN2Cc3ccccc3C2)occ1OCc1ccc(-n2ccnn2)cc1` [Compound 107, 5-((4-(1H-1,2,3-triazol-1-yl)benzyl)oxy)-2-(isoindolin-2-ylmethyl)-4H-pyran-4-one], the half-maximal inhibitory concentration (IC50) was 150 to 300 nM.

Take `CC(C)(C)NC(=O)N1CCC(COc2coc(CN3Cc4ccccc4C3)cc2=O)CC1` [Compound 248, N-(tert-Butyl)-4-(((6-(isoindolin-2-ylmethyl)-4-oxo-4H-pyran-3-yl)oxy)-methyl)piperidine-1-carboxamide]: the IC50 is 150 to 300 nM.

On to `NC(=O)c1ccc(COc2coc(CN3Cc4ccccc4C3)cc2=O)c(F)c1` [Compound 56, 3-Fluoro-4-(((6-(isoindolin-2-ylmethyl)-4-oxo-4H-pyran-3-yl)oxy)methyl)-benzamide], for which the IC50 is 150 to 300 nM.

With `O=C(C1CCC(COc2coc(CN3Cc4ccccc4C3)cc2=O)CC1)N1CCC1` (stereo not shown) [Compound 234, 5-((4-(Azetidine-1-carbonyl)cyclohexyl)methoxy)-2-(isoindolin-2-ylmethyl)-4H-pyran-4-one], the IC50 was less than 150 nM.

`CC(C)(CO)CNC(=O)c1ccc(COc2coc(CN3Cc4ccccc4C3)cc2=O)cc1` [Compound 151, N-(3-Hydroxy-2,2-dimethylpropyl)-4-(((6-(isoindolin-2-ylmethyl)-4-oxo-4H-pyran-3-yl)oxy)methyl)benzamide]: the IC50 was in the range of 301 to 2000 nM.

For the molecule `O=c1cc(CN2Cc3ccccc3C2)occ1OCC1CCCCC1` [Compound 65, 5-(Cyclohexylmethoxy)-2-(isoindolin-2-ylmethyl)-4H-pyran-4-one], the 50% inhibitory concentration (IC50) is less than 150 nM.

On to `O=c1cc(CN2Cc3ccccc3C2)occ1OCc1ccc(-c2ccccn2)cc1` [Compound 165, 2-(Isoindolin-2-ylmethyl)-5-((4-(pyridin-2-yl)benzyl)oxy)-4H-pyran-4-one], for which the IC50 was in the range of 150 to 300 nM.

On to `CC(C)N(C(=O)c1ccc(COc2coc(CN3Cc4ccccc4C3)cc2=O)cc1)C(C)C` [Compound 134], for which the IC50 is less than 150 nM.

Consider `CC(C)(C)OC(=O)N1CCC[C@@H](COc2coc(CN3Cc4ccccc4C3)cc2=O)C1` [Compound 202, (R)-tert-Butyl 3-(((6-(isoindolin-2-ylmethyl)-4-oxo-4H-pyran-3-yl)oxy)methyl)-piperidine-1-carboxylate], for which the half-inhibitory concentration (IC50) lay within 301 to 2000 nM.

As to `O=C(NCCCO)c1ccc(COc2coc(CN3Cc4ccccc4C3)cc2=O)cc1` [Compound 282, N-(3-Hydroxypropyl)-4-(((6-(isoindolin-2-ylmethyl)-4-oxo-4H-pyran-3-yl)oxy)methyl)benzamide], the half-maximal inhibitory concentration (IC50) fell in the range of 301 to 2000 nM.

As for `O=C1NCc2cc(COc3coc(CN4Cc5ccccc5C4)cc3=O)ccc21` [Compound 180, 5-(((6-(Isoindolin-2-ylmethyl)-4-oxo-4H-pyran-3-yl)oxy)methyl)isoindolin-1-one], the IC50 was in the range of 150 to 300 nM.

Consider `O=c1cc(CN2Cc3ccccc3C2)occ1OCc1ccc(S(=O)(=O)N2CCOCC2)cc1` [Compound 6, 2-(Isoindolin-2-ylmethyl)-5-((4-(morpholinosulfonyl)benzyl)oxy)-4H-pyran-4-one], for which the IC50 lay in the range of 150 to 300 nM.

Take `CN(C1CCC(COc2coc(CN3Cc4ccccc4C3)cc2=O)CC1)S(C)(=O)=O` (stereo not shown) [Compound 218, N-(4-(((6-(Isoindolin-2-ylmethyl)-4-oxo-4H-pyran-3-yl)oxy)methyl)cyclohexyl)-N-methylmethanesulfonamide]: the IC50 lay within 150 to 300 nM.

Regarding `CC(=O)N=S1(=O)CCC(COc2coc(CN3Cc4ccccc4C3)cc2=O)CC1` (stereo not shown) [Compound 243, N-(4-(((6-(Isoindolin-2-ylmethyl)-4-oxo-4H-pyran-3-yl)oxy)methyl)-1-oxido-tetrahydro-2H-1λ^6-thiopyran-1-ylidene)acetamide], the IC50 was in the range of 301 to 2000 nM.

As for `O=c1cc(CN2Cc3ccc(C(F)(F)F)cc3C2)occ1OCc1ccc(C2(O)COC2)cc1` [Compound 116, 5-((4-(3-Hydroxyoxetan-3-yl)benzyl)oxy)-2-((5-(trifluoromethyl)isoindolin-2-yl)methyl)-4H-pyran-4-one], the IC50 is less than 150 nM.

For the origin of these results see patent US11098032B2, “Pyran dervatives as CYP11A1 (cytochrome P450 monooxygenase 11A1) inhibitors” (ORION CORPORATION, priority 2016, dated 2021).
